The data set is described as follows: in vitro. As to conditions: human, hela cells, % viability.

In the case of `O=[N+]([O-])c1ccc(O)c(C(C#Cc2ccccc2)N2CCOCC2)c1` (stereo not shown) [CBK262741], the viability at 28.5 h, 10 µM worked out at 93.2%.
The figure for `Cc1nc(N2CCCCC2)ncc1C(=O)NCCc1cc[nH]n1` [CBK307035] is 113%.
The figure for `COc1nnc(-c2ccc(N3CCOCC3)c(NC(=O)COc3ccc(C)cc3)c2)c2ccccc12` [CBK266103] is 97.6%; for `CCOC(=O)c1c(NC(=O)c2nn3c(C(F)(F)F)cc(-c4cccs4)nc3c2Cl)sc2c1CCCC2` [CBK262539] it is 95.1%; for `O=C(Nc1ccc([C@@H](O)[C@H]2COCC(=O)N2Cc2cccnc2)cc1)c1ccccc1` [CBK289319] it is 111%.
With `Cn1c(CCN2CCOCC2)nc2cc(NC(=O)c3cccs3)ccc21` [CBK268415] the figure was 97.9%; with `CC(=O)Nc1ccc(NC(=O)COc2c(C)cc(Br)cc2C)cc1` [CBK267321], 101%; with `CCCCC1C(=O)N(C)CCN1C(=O)c1cc(C)c(CC)n(C)c1=O` (stereo not shown) [CBK306527], 91.2%.
Regarding `CC(O)CN(Cc1ccc(-c2ccccc2)cc1)Cc1ccc2c(c1)OCO2` (stereo not shown) [CBK286450], the viability at 28.5 h, 10 µM was found to be 94.1%.
With `CC(OC(=O)c1ccc(O)cc1)C(=O)Nc1ccc(Cl)c(Cl)c1` (stereo not shown) [CBK264281] the figure was 96.4%.
For `CCOC(=O)CCCNC(=O)N1CCCC(CO)C1` (stereo not shown) [CBK156344], the viability at 28.5 h, 10 µM turned out to be 102%.
With `O=C(c1ccc(OC(F)(F)F)cc1)N1CCC2(CCN(C(=O)c3cc(F)c(F)cc3F)C2)C1` (stereo not shown) [CBK131384], the viability at 28.5 h, 10 µM was determined as 108%.
With `Cn1c(=O)n(CC(=O)N2CCCc3ccccc32)c2cccnc21` [CBK283790] the figure was 86.7%.
The figure for `CCN1CCN(Cc2cnc(-c3ccccn3)nc2)CC1=O` [CBK306678] is 99.9%; for `O=C(CSc1nnc(Cc2cccs2)n1-c1ccccc1)c1c[nH]c2ccccc12` [CBK268290] it is 88%.
In the case of `O=C(COC(=O)c1cc(O)nc2ccccc12)c1ccccc1Cl` [CBK265524], the viability at 28.5 h, 10 µM was 95.2%.
In the case of `FC(F)(F)c1cccnc1OCCNc1ccccc1` [CBK115822], the viability at 28.5 h, 10 µM amounted to 98.7%.
The figure for `COc1cc(NS(=O)(=O)c2ccc(NC(=O)c3cccnc3)cc2)ncn1` [CBK268156] is 93%; for `COc1ccccc1C1=NN(C(=O)CCCC(=O)O)C(c2ccco2)C1` (stereo not shown) [CBK266642] it is 91.8%.
With `Brc1ccc(-c2nc(NCCCN3CCOCC3)cc(-c3ccccc3)n2)cc1` [CBK261712] the figure was 90.1%; with `CCc1nn(CC(=O)N2CCCCC2)c(=O)c2cc3ccsc3n12` [CBK284119], 85.7%.
Turning to `O=C(c1nc2ccccc2[nH]1)N1CCc2ccccc2C1` [CBK200341], the viability at 28.5 h, 10 µM was found to be 100%.
Take `O=C(O)c1ccc(NC(=O)c2ccccc2F)c(NC(=O)c2ccccc2F)c1` [CBK275363]: the viability at 28.5 h, 10 µM came to 101%.
The figure for `Cc1ccc(-c2oncc2C(=O)N2CCC(n3c(=O)[nH]c4ccccc43)CC2)cc1` [CBK149180] is 106%; for `Cc1cc(C=O)c(O)c(/C=N/CC/N=C/c2cc(C)cc(C=O)c2O)c1` [CBK262149] it is 95.6%.
For the compound `OCCSCc1ccc2nonc2c1` [CBK020617], the viability at 28.5 h, 10 µM worked out at 107%.
Regarding `O=C(O)CCCCCNC(=S)Nc1cccc(Cl)c1` [CBK288446], the viability at 28.5 h, 10 µM was found to be 88.1%.
Take `COc1ccc(Cc2nnc(Nc3ccc(OC)cc3)[nH]c2=O)cc1` [CBK287385]: the viability at 28.5 h, 10 µM is 92.9%.
Turning to `O=c1c2ccccc2nc(CSc2[nH]cnc3ncnc2-3)n1-c1cccc(C(F)(F)F)c1` [CBK264991], the viability at 28.5 h, 10 µM turned out to be 105%.
With `O=C(NCCNC(=O)c1ccccn1)c1ccccn1` [CBK265654] the figure was 101%; with `CCC1CCCCN1C(=O)c1cc(C)oc1C` (stereo not shown) [CBK089358], 105%; with `CCNC(=O)/N=C(/N)Nc1nc2ccccc2s1` [CBK028890], 72.1%.
In the case of `O=C(Nc1ccc(Cl)cc1)NC(C(=O)O)c1ccccc1` (stereo not shown) [CBK267405], the viability at 28.5 h, 10 µM is 94.9%.
The figure for `CO/C(=N\S(=O)(=O)c1ccccc1)c1ccccc1` [CBK023221] is 89.4%; for `COc1ccc(-c2cc[nH]n2)c(OC)c1OC` [CBK022957C] it is 82%.
Take `O=C1CCN(Cc2ccccc2)CCN1C(=O)C1CCCC1` [CBK284829]: the viability at 28.5 h, 10 µM came to 85.7%.
The figure for `O=C(O)C1C2C=CC(O2)C1C(=O)NCc1ccccn1` (stereo not shown) [CBK058859] is 99.1%; for `COc1cc(/C=N/NC(=O)c2nonc2N)ccc1OC(=O)c1cc(F)c(F)cc1Cl` [CBK262380] it is 90.1%.
With `O=C(O)CCC(=O)NCc1ccc(-c2nccnc2NS(=O)(=O)c2ccc(O)cc2)cc1` [CBK073843] the figure was 106%.
With `CC(C)(C)c1ccc(Oc2ccc(NC(=O)CCCC(=O)O)cc2)cc1` [CBK264339] the figure was 103%.
As to `Cc1c(Cl)cccc1NC(=S)/N=C(\N)Nc1nc(C)c2ccccc2n1` [CBK268866], the viability at 28.5 h, 10 µM stood at 86.9%.
Regarding `Cc1ccc(S(=O)(=O)Nc2ccc(Nc3cc(-c4cccc([N+](=O)[O-])c4)ncn3)cc2)cc1` [CBK090983], the viability at 28.5 h, 10 µM came out at 109%.
With `CN(C)CCNc1cc(-c2ccc3ccccc3c2)nc2ccccc12` [CBK278186B] the figure was 67.9%; with `COc1cc(-c2nccnc2NCCCO)cc(OC)c1OC` [CBK037274], 105%; with `COc1cccc2cc(C(=O)Nc3cccc(C)n3)oc12` [CBK287659], 94.5%.
On to `Cc1cc(C(=O)N2CCC(Cn3cncn3)(C3CCCCC3)CC2)n[nH]1` [CBK136786], for which the viability at 28.5 h, 10 µM worked out at 99.2%.
Regarding `O=S(=O)(Nc1nnc(C(F)(F)F)s1)c1csc2ccccc12` [CBK062009], the viability at 28.5 h, 10 µM stood at 95.9%.
With `OC(COCc1ccc2c(c1)OCO2)CN1CCN(Cc2ccccc2)CC1` (stereo not shown) [CBK278249C] the figure was 93.5%; with `O=C(c1ccccc1F)N1CCC(c2nnc3n2CCCCC3)CC1` [CBK284628], 82.2%; with `NC(=O)CCN(CCC(N)=O)S(=O)(=O)c1ccc(N)cc1` [CBK262134], 118%.
The figure for `CC(=O)Nc1c(C#N)cnn1C` [CBK046332] is 96%.
For `CC(C)N1CC[C@@H]2[C@H]1C(=O)NC[C@H](CCC(=O)NCc1ccccc1)N2C` [CBK289027], the viability at 28.5 h, 10 µM was 91.7%.
For `Nc1nonc1-c1nc2ccccc2o1` [CBK009829], the viability at 28.5 h, 10 µM stood at 91%.
As for `CN1CCN(C(=O)c2[nH]c3ccccc3c2NS(=O)(=O)c2cc(F)c(Br)cc2F)CC1` [CBK050051], the viability at 28.5 h, 10 µM worked out at 90.5%.
Turning to `O=C(Nc1cccc(CCc2ccncc2)c1)C1CC(=O)N(Cc2ccncc2)C1` (stereo not shown) [CBK286287], the viability at 28.5 h, 10 µM is 89.6%.
With `COc1ccc(-c2cc(=O)n3cc[nH]c3n2)cc1` [CBK006659] the figure was 87.6%.
With `NS(=O)(=O)c1ccc(NC(=S)NNS(=O)(=O)c2ccc(Br)cc2)cc1` [CBK266928] the figure was 111%; with `COc1cccc(CNC(=O)CCc2nc3ccccc3[nH]2)c1` [CBK288003], 115%.
With `Cc1cc2c(cc3c(=O)n(CC(=O)OC(C)C)nc(C)n32)s1` [CBK284071] the figure was 98.6%; with `Cc1cc(C)nc(NC(=O)OCCc2ccncc2)c1` [CBK138233], 93.9%.
In the case of `O=C(O)CC(NS(=O)(=O)c1cccc2nsnc12)C(=O)O` (stereo not shown) [CBK073316], the viability at 28.5 h, 10 µM is 112%.
With `COc1cc(CNS(=O)(=O)c2cc3c(NCCN(C)C)nccc3s2)cc(OC)c1OC` [CBK038246C] the figure was 91.8%; with `O=C(c1ccc(OC(F)(F)F)cc1)N1CCC2(CCN(Cc3ccccc3)CC2)C1` [CBK136746], 101%.
For the compound `CN(C(=S)NCc1ccccc1)C1CC[C@@]2(c3ccc(F)cc3)CCN(C)[C@H]2C1` (stereo partly shown) [CBK003500C], the viability at 28.5 h, 10 µM was 90.1%.
For `CN(C)CCN1CCN(c2ccc(-c3ccc(OC(F)(F)F)cc3)cn2)CC1` [CBK036796], the viability at 28.5 h, 10 µM came to 94.7%.
For `O=C(Nc1ccc(S(=O)(=O)Nc2nccc(C3Cc4ccccc4C(=O)O3)n2)cc1)c1ccccc1` (stereo not shown) [CBK267306], the viability at 28.5 h, 10 µM is 105%.
With `NS(=O)(=O)c1ccc(NC2=NC(=O)C(CC(=O)Nc3ccccc3)S2)cc1` (stereo not shown) [CBK266417] the figure was 98.2%; with `O=C(Nc1cccc(Cl)c1Cl)c1cccs1` [CBK057672], 104%.
With `CC(C)NC(=O)N1C[C@@H]2C[C@H](C1)c1ccc(-c3cccnc3)c(=O)n1C2` [CBK289184] the figure was 97.5%.
With `CCOc1ccc(N(CCC#N)C(=O)Cn2nc(C(=O)O)c3ccccc3c2=O)cc1` [CBK297502] the figure was 85.2%.
As to `CC(=O)Nc1cccc(-c2cc(N3CCN(CC(=O)N(C)c4ccccc4)CC3)ncn2)c1` [CBK091134], the viability at 28.5 h, 10 µM is 99.7%.
Regarding `COc1ccccc1NC(=O)c1sc2ncn(CC(=O)NC3CCCCC3)c(=O)c2c1C` [CBK265788], the viability at 28.5 h, 10 µM was 98.5%.
With `COc1ccc2cc(CNc3ccc(Oc4ccccc4)cc3)c(=O)[nH]c2c1` [CBK286158] the figure was 83.7%; with `COC(=O)Nc1ccc(S(=O)(=O)N2CCCCC2C(=O)O)cc1` (stereo not shown) [CBK058086], 106%.
Turning to `O=C(CSc1nnc(-c2ccncc2)n1-c1ccccc1)N/N=C/c1ccco1` [CBK262828], the viability at 28.5 h, 10 µM amounted to 94.4%.
The figure for `CCCc1cc(C(=O)N(C)CCOc2ccccc2)[nH]n1` [CBK283162] is 91.7%; for `Cc1cc(C)nc(N/C(=N\C(=O)Nc2ccccc2)NCc2cccnc2)n1` [CBK132681] it is 92.2%; for `COc1ccc(NC(=O)c2ccc3c(c2)C(=O)N(Cc2ccncc2)C3=O)cc1` [CBK269660] it is 97.7%.
With `O=C(CSc1nnc(-c2ccncc2)[nH]1)c1ccc(O)c(O)c1` [CBK264346] the figure was 86.6%.

The record behind these values is publication PMC12040169 (PLOS Biology, 2025).
